According to the supplement of paper PMC4932681:

Key:
ZR-75-1 Tam1 [1] = experiment: drug sensitivity score (DSS) (DSS (dimensionless)); higher = more sensitive; extreme values may be limits of the assay; settings: 4-OH-tamoxifen in medium 1 µM; 72 h
Description: (§1)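 FIMM FO2B library drugs were tested at 5 concentrations (10,000-fold range) for 72 h, with CellTiter-Glo viability normalised to DMSO and benzethonium chloride controls. The Drug Sensitivity Score (DSS) is computed from the fitted logistic dose-response curve (area-based; 0 = inactive). Resistant lines and the 'in 1µM tamoxifen' arms were tested in 1 µM 4-OH-tamoxifen.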

ZR-75-1 [2] = experiment: as above; settings: 72 h
Description: as §1

T-47D Tam2 = experiment: as above; settings: 4-OH-tamoxifen in medium 1 µM; 72 h
Description: as §1

MCF-7 [3] = experiment: as above; settings: 72 h
Description: as §1

BT-474 Tam2 [4] = experiment: as above; settings: 4-OH-tamoxifen in medium 1 µM; 72 h
Description: as §1

BT-474 Tam1 [5] = experiment: as above; settings: 4-OH-tamoxifen in medium 1 µM; 72 h
Description: as §1

T-47D [6] = experiment: as above; settings: 72 h
Description: as §1

MCF-7 Tam1 = experiment: as above; settings: 4-OH-tamoxifen in medium 1 µM; 72 h
Description: as §1

ZR-75-1 Tam2 [7] = experiment: as above; settings: 4-OH-tamoxifen in medium 1 µM; 72 h
Description: as §1

T-47D Tam1 [8] = experiment: as above; settings: 4-OH-tamoxifen in medium 1 µM; 72 h
Description: as §1

BT-474 [9] = experiment: as above; settings: 72 h
Description: as §1

ZR-75-1 Tam1 [10] = experiment: relative IC50 (midpoint of fitted logistic curve, plateau may be below 50% inhibition; CellTiter-Glo viability); higher = less potent; settings: 4-OH-tamoxifen in medium 1 µM; 72 h
Description: (§2)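 FIMM FO2B library drugs were plated at 5 concentrations spanning a 10,000-fold range in 384-well plates. Cells were incubated for 72 h at 37 °C and viability was read by CellTiter-Glo, normalised to DMSO (0% inhibition) and 100 µM benzethonium chloride (100% inhibition). IC50 values come from logistic dose-response fits (Breeze pipeline). Tamoxifen-resistant lines and the 'in 1µM tamoxifen' parental arms were tested in medium with 1 µM 4-OH-tamoxifen.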

ZR-75-1 [11] = experiment: as above; settings: 72 h
Description: as §2

MCF-7 [12] = experiment: as above; settings: 72 h
Description: as §2

BT-474 Tam2 [13] = experiment: as above; settings: 4-OH-tamoxifen in medium 1 µM; 72 h
Description: as §2

BT-474 Tam1 [14] = experiment: as above; settings: 4-OH-tamoxifen in medium 1 µM; 72 h
Description: as §2

T-47D [15] = experiment: as above; settings: 72 h
Description: as §2

ZR-75-1 Tam2 [16] = experiment: as above; settings: 4-OH-tamoxifen in medium 1 µM; 72 h
Description: as §2

T-47D Tam1 [17] = experiment: as above; settings: 4-OH-tamoxifen in medium 1 µM; 72 h
Description: as §2

BT-474 [18] = experiment: as above; settings: 72 h
Description: as §2

Row | SMILES | drug sensitivity score (ZR-75-1 Tam1 [1]) | drug sensitivity score (ZR-75-1 [2]; 4-OH-tamoxifen in medium 0 µM) | drug sensitivity score (ZR-75-1 [2]; 4-OH-tamoxifen in medium 1 µM) | drug sensitivity score (T-47D Tam2) | drug sensitivity score (MCF-7 [3]; 4-OH-tamoxifen in medium 0 µM) | drug sensitivity score (MCF-7 [3]; 4-OH-tamoxifen in medium 1 µM) | drug sensitivity score (BT-474 Tam2 [4]) | drug sensitivity score (BT-474 Tam1 [5]) | drug sensitivity score (T-47D [6]; 4-OH-tamoxifen in medium 0 µM) | drug sensitivity score (T-47D [6]; 4-OH-tamoxifen in medium 1 µM) | drug sensitivity score (MCF-7 Tam1) | drug sensitivity score (ZR-75-1 Tam2 [7]) | drug sensitivity score (T-47D Tam1 [8]) | drug sensitivity score (BT-474 [9]; 4-OH-tamoxifen in medium 0 µM) | drug sensitivity score (BT-474 [9]; 4-OH-tamoxifen in medium 1 µM) | relative IC50 (ZR-75-1 Tam1 [10]) | relative IC50 (ZR-75-1 [11]; 4-OH-tamoxifen in medium 1 µM) | relative IC50 (MCF-7 [12]; 4-OH-tamoxifen in medium 0 µM) | relative IC50 (MCF-7 [12]; 4-OH-tamoxifen in medium 1 µM) | relative IC50 (BT-474 Tam2 [13]) | relative IC50 (BT-474 Tam1 [14]) | relative IC50 (T-47D [15]; 4-OH-tamoxifen in medium 0 µM) | relative IC50 (ZR-75-1 Tam2 [16]) | relative IC50 (T-47D Tam1 [17]) | relative IC50 (BT-474 [18]; 4-OH-tamoxifen in medium 0 µM) | relative IC50 (BT-474 [18]; 4-OH-tamoxifen in medium 1 µM) | relative IC50 (ZR-75-1 [11]; 4-OH-tamoxifen in medium 0 µM) | relative IC50 (T-47D [15]; 4-OH-tamoxifen in medium 1 µM)
1 | Cc1sc2c(c1C)C(c1ccc(Cl)cc1)=N[C@@H](CC(=O)OC(C)(C)C)c1nnc(C)n1-2 [(+)JQ1] | 7.1 | 3.81 | 4.27 | 2.91 | 12.8 | 6.92 | 8.29 | 8.34 | 5.63 | 2.13 | 0.216 | 6.24 | 11 | 6.3 | 7.87 | 238 nM | 359 nM | 189 nM | 851 nM | 1120 nM | 1140 nM | 345 nM | 336 nM | 146 nM | 136 nM | 1060 nM |  | 
2 | CC(=O)Nc1cccc(-n2c(=O)n(C3CC3)c(=O)c3c(Nc4ccc(I)cc4F)n(C)c(=O)c(C)c32)c1 | 0 | 0 | 0 | 2.69 | 0 | 3.01 | 0 | 0 | 0 | 0.259 | 0.101 | 0 | 2.19 | 0 | 0.246 | > 250 nM | > 250 nM | > 250 nM |  | > 250 nM | > 250 nM | > 250 nM | > 250 nM |  | > 250 nM |  | > 250 nM | > 250 nM
3 | COc1cc(OC2CCN(C)CC2)ccc1Nc1ncc2c(n1)n(C1CCCC1)c(=O)n2C [AZ 3146] | 0.233 | 0.724 | 0.0431 | 0.886 | 0.951 | 0.135 | 0.781 | 3.57 | 1.1 | 0.111 | 0.007 | 0.671 | 0 | 0 | 7.15 |  |  |  |  |  | 3660 nM |  |  | > 10000 nM | > 10000 nM | 1590 nM |  | 
4 | Cn1cc(C2=Nc3cc(NC(=O)C(N)C4CCCCC4)cc4c3C2=CNNC4=O)cn1 (stereo unspecified) | 0 | 0 | 0 | 2.29 | 2.19 | 0.0458 | 0 | 0 | 0 | 0.174 | 0 | 0 | 4.76 | 0 | 0 | > 10000 nM | > 10000 nM | 1890 nM |  | > 10000 nM | > 10000 nM | > 10000 nM | > 10000 nM | 1410 nM | > 10000 nM | > 10000 nM | > 10000 nM | 
